# Experimental data reported in patent US7927612B2, “Combinations and methods for treating neoplasms” (priority 2000, dated 2011).
# Values joined by “and” are separate entries in the source; they are usually repeats but may differ in a detail not shown here. Equal values may be shown once.
# Tests used:
# liver cancer cells = assay: Treatment efficacy study in mice with implanted liver cancer cells: tumor volume (Example 9, Tables 14-16); type: in vivo, Kuiking mice; parameters: Everage TV1 (average tumor volume): unit not given here; details: control group
# Method: Kuiking mice were used in this study. The average weight of the mice used in this study is about 23 grams. About 10^3 liver cancer cells were implanted into the left army pit of mice. […] The mice were divided into three groups: control group, therapy group and immunotherapy group. In the control group, 0.1 ml of Ara-C in normal saline was injected to the tumor via intro-tumor injection. […]
# [1] = Body weight of tumor-bearing mice in the treatment efficacy study (Example 9, Tables 14-16); type: in vivo, Kuiking mice; parameters: unit: g; details: control group
# Method: Kuiking mice were used in this study. The average weight of the mice used in this study is about 23 grams. About 10^3 liver cancer cells were implanted into the left army pit of mice. At about 10 days, the small tumor grew under the mice skin. At about 15 days, the tumor grew to about 1 cm size. The mice were divided into three groups: control group, therapy group and immunotherapy group. In the control group, 0.1 ml of Ara-C in normal saline was injected to the tumor via intro-tumor injection.
# In the immunotherapy group, 0.1 ml of the combination of ethanol, H2O2, anticancer drug AraC, hemotoxilin and TNP in normal saline was injected to the tumor via intro-tumor injection.
# [2] = Date (start), individual mice No. 1-10
substance,measurement,setting,value
Cytidine Arabinosyladenine [Ara-C],Everage TV1 (average tumor volume),liver cancer cells; 1 d,0.8
same,TV (tumor volume),"liver cancer cells; 1 d, individual mice",1.3*0.7*0.5 = 0.455 Scm and 1.1*0.8*0.6 = 0.528 Scm and 1.4*1.1*1 = 1.54 Scm and 1*0.9*0.6 = 0.54 Scm and 1.1*1*0.7 = 0.77 Scm and 1.3*0.9*0.8 = 0.94 Scm and 1*0.7*0.7 = 0.49 Scm and 1.1*0.7*0.6 = 0.462 Scm
same,Everage TV1 (average tumor volume),liver cancer cells; 2 d,1.33
same,TV (tumor volume),"liver cancer cells; 2 d, individual mice",1.2*1.1*0.8 = 1.1 Scm and 1.2*0.9*0.5 = 0.54 Scm and 1.4*1.2*0.8 = 1.34 Scm and 1*0.8*0.6 = 0.48 Scm and 1.3*0.6*0.5 = 0.39 Scm and 1.3*1*0.8 = 1.04 Scm and 1.3*0.8*0.7 = 0.73 Scm and 1.2*1.1*0.8 = 1.06 Scm and 1.2*1*0.8 = 0.96 Scm and 1.3*0.9*0.6 = 0.702 Scm
same,Everage TV1 (average tumor volume),liver cancer cells; 3 d,1.47
same,TV (tumor volume),"liver cancer cells; 3 d, individual mice",1.1*1.2*0.7 = 0.924 Scm and 1.5*1.2*1 = 1.8 Scm (2×) and 1.2*0.9*0.6 = 0.648 Scm and 1.2*1.1*0.8 = 1.1 Scm and 1.2*1*0.6 = 0.72 Scm and 1.4*1.1*0.7 = 1.08 Scm and 1.4*1.2*0.8 = 1.34 Scm and 1*1*0.6 = 0.6 Scm
same,Everage TV1 (average tumor volume),liver cancer cells; 4 d,1.47
same,TV (tumor volume),"liver cancer cells; 4 d, individual mice",1.3*1.4*1.1 = 2 Scm and 1.5*1*0.6 = 0.99 Scm and 1.6*1.4*1 = 2.24 Scm and 1.2*0.8*0.5 = 1 Scm and 1.6*1.3*1.4 = 2.9 Scm and 1.4*0.8*0.6 = 0.67 Scm and 1.5*1.2*1.1 = 1.98 Scm and 1.2*1.1*0.8 = 1.06 Scm and 1.3*1.1*0.8 = 1.14 Scm and 1*1*0.7 = 0.7 Scm
same,Everage TV1 (average tumor volume),liver cancer cells; 5 d,1.65
same,TV (tumor volume),"liver cancer cells; 5 d, individual mice",1.4*1*1 = 1.4 Scm and 1.5*1.3*1 = 1.95 Scm and 1.5*1.1*0.7 = 1.16 Scm and 1.7*1.3*0.9 = 1.98 Scm and 1.2*1.2*0.7 = 1 Scm and 1.5*1.3*0.9 = 1.75 Scm and 1.7*1.4*1 = 2.38 Scm and 1.4*1.4*1 = 1.96 Scm and 1.6*1*0.8 = 1.28 Scm
same,Everage TV1 (average tumor volume),liver cancer cells; 6 d,1.87
same,TV (tumor volume),"liver cancer cells; 6 d, individual mice",1.3*1.1*0.8 = 1.14 Scm and 1.6*1.3*1.1 = 2.28 Scm and 1.2*1*0.5 = 0.6 Scm and 1.8*1.2*1 = 2.16 Scm and 1.3*1.5*0.6 = 1.17 Scm and 1.6*1.4*1 = 2.24 Scm and 1.9*1.6*1.2 = 3.6 Scm and 1.5*1.4*1.1 = 2.31 Scm and 1.4*1.2*0.8 = 1.34 Scm
same,Everage TV1 (average tumor volume),liver cancer cells; 7 d,2.59
same,TV (tumor volume),"liver cancer cells; 7 d, individual mice",1.5*0.8*0.7 = 0.84 Scm and 1.8*1.6*1.5 = 4.32 Scm and 1.4*0.9*0.6 = 0.76 Scm and 1.9*1.4*1.2 = 3.19 Scm and 1.5*1.3*0.9 = 1.76 Scm and 1.9*1.5*1 = 2.85 Scm and 1.8*1.5*1.5 = 4 Scm and 1.5*1.4*1.3 = 2.73 Scm and 1.5*1.6*1.2 = 2.88 Scm
same,Everage TV1 (average tumor volume),liver cancer cells; 8 d,2.73
same,TV (tumor volume),"liver cancer cells; 8 d, individual mice",1.3*0.9*0.7 = 0.819 Scm and 1.4*1.5*1.3 = 2.73 Scm and 1.8*1.2*1.2 = 2.59 Scm and 1.2*0.7*0.6 = 0.5 Scm and 1.5*1.5*1.2 = 2.7 Scm and 1.5*1.6*1.4 = 3.36 Scm and 1.5*1.3*1.2 = 2.34 Scm and 1.5*1.4*1.2 = 2.52 Scm and 1.5*1.2*1.1 = 1.98 Scm
same,Everage TV1 (average tumor volume),liver cancer cells; 9 d,3.12
same,TV (tumor volume),"liver cancer cells; 9 d, individual mice",1.5*1.2*0.9 = 1.62 Scm and 1.8*1.8*1.8 = 5.8 Scm and 1.9*1.5*1.4 = 3.99 Scm and 1.6*1.1*0.7 = 1.2 Scm and 2.1*1.5*1.4 = 4.4 Scm and 1.3*1.4*1.1 = 2 Scm and 1.7*1.4*1.1 = 2.62 Scm and 1.4*1.6*1.4 = 3.14 Scm and 1.8*1.4*1.3 = 3.28 Scm
same,Everage TV1 (average tumor volume),liver cancer cells; Date (start),0.343
same,TV (tumor volume),liver cancer cells; [2],0.8*0.6*0.4 = 0.192 Scm and 1*0.5*0.3 = 0.15 Scm and 1.3*0.9*0.6 = 0.7 Scm and 1*0.7*0.5 = 0.35 Scm and 0.9*0.7*0.5 = 0.32 Scm and 0.8*0.6*0.5 = 0.24 Scm and 1*0.9*0.6 = 0.54 Scm and 1*0.8*0.5 = 0.4 Scm and 0.7*0.7*0.6 = 0.294 Scm and 0.7*0.7*0.5 = 0.245 Scm
same,Weight,"[1]; 1 d, individual mice",25 (3×) and 20 and 21 and 17 and 25.5 and 18 and 23.5 and 27
same,Weight,"[1]; 2 d, individual mice",24 (2×) and 19 (2×) and 16.5 and 17 and 23.8 and 17.5 and 21 and 25
same,Weight,"[1]; 3 d, individual mice",22 (4×) and 17.5 and 17 and 15 and 16.5 and 20 and 23.5
same,Weight,"[1]; 4 d, individual mice",26.5 and 24 (2×) and 28.2 and 22.8 and 15.8 and 16.5 and 26 and 20 and 28.5
same,Weight,"[1]; 5 d, individual mice",24.5 and 30 and 28.5 and 24 (2×) and 28 and 19 and 26.5 and 21.5
same,Weight,"[1]; 6 d, individual mice",23.5 and 31 and 29.5 and 24.5 and 28 (2×) and 24 and 19 and 22
same,Weight,"[1]; 7 d, individual mice",24 (2×) and 32.5 and 29 and 24.5 and 28.5 and 19.5 and 28 and 21
same,Weight,"[1]; 8 d, individual mice",24.5 (3×) and 33 and 24 and 28.5 (2×) and 20 and 21
same,Weight,"[1]; 9 d, individual mice",24.5 (2×) and 33.5 and 23.5 and 28.5 (2×) and 21 and 29 and 23
same,Weight,[1]; [2],23.5 and 24 and 22.5 and 18 and 18.5 and 14 and 23 and 14.5 and 20 and 26
